Laboratory results reported in patent US11426356B2, “Crosslinked particles” (Pendant Biosciences, Inc., priority 2015, dated 2022).

Experiments:
Format in all cases: physicochemical
[1] = Loading of particles with triamcinolone hexacetonide (swelling in THF, slow addition of water); settings: included surface-bound drug or free drug in solution
Protocol: In some embodiments, the loading procedure can affect the amount of drug that is absorbed into a particle of the present disclosure. For example, as set forth in Examples 7 and 8, 25 mg of 75:25 (mPEG-PVL-PAVL:PVL-PAVL) particles were swollen overnight with 2 mg/mL triamcinolone hexacetonide in THF. However, without wishing to be bound by theory, slow addition of greater volumes of water can facilitate greater uptake of triamcinolone hexacetonide by allowing the drug to preferentially partition into the particles. As set forth in Examples 7 and 8, slow addition of water enabled 67% loading efficiency. Additional parameters, in addition to the rate of water addition, that can affect the loading of a drug into a particle of the present disclosure are, for instance, the solvent in which the drug is dissolved, the time that the particles soak with the drug, and the volume of water used. Other parameters include the pH and the ionic strength of the solvent. For example, protic organic solvents such as methanol or ethanol can be used in place of water to facilitate loading of drug into a particle of the present disclosure.
Unless otherwise indicated, quantitation of drug products was carried out using HPLC methods. […]

[2] = Drug loading of crosslinked PVL-co-PAVL macroparticles (cylinders)
Protocol: (§1) Unless otherwise indicated, quantitation of drug products was carried out using HPLC methods. Calibration curves for drugs used herein (e.g., triamcinolone, triamcinolone hexacetonide, triamcinolone acetonide, paclitaxel, and curcumin) were prepared by injecting known concentrations of the drugs and measuring the area under the curve at each concentration. Analyses were carried out using an Agilent Zorbax Eclipse XDB-C18 column (150×4.6 mm i.d.) with a 12.5×4.6 mm guard column. The parameters for each drug are given below in Table 1
A crosslinked macroparticle weighing about 15 mg comprising PVL-co-PAVL (MW=14760 g/mol, 13% AVL, 87% VL) was loaded with 2.5 mg paclitaxel by overnight soaking in THF followed by the slow addition of 50 mL PBS containing 0.1% Tween.

[3] = Preliminary drug release from crosslinked macroparticles
Protocol: as §1
The macroparticles were suspended in PBS (0.1% Tween) and the release rate was observed. The macroparticles released 5% of the paclitaxel after 3 hours at room temperature and about 5% after 24 hours at room temperature.

[4] = Release of triamcinolone hexacetonide from loaded particles in dissolution media
Protocol: as §1
25 mg of 75:25 (mPEG-PVL-PAVL:PVL-PAVL) particles were swollen overnight with 2 mg/mL triamcinolone hexacetonide in THF. 10 mL water including 0.1% tween was then added dropwise. The resulting mixture was centrifuged, the supernatant was collected, and the addition of 10 mL water including 0.1% tween was added dropwise again (2×; 30 mL total).
Without wishing to be bound by theory, this may be due to the fact that the triamcinolone hexacetonide crystallized on the surface of the particles. Without wishing to be bound by theory, this may be due to the relatively fast addition of water and the limited solubility of triamcinolone hexacetonide, which caused it to crystallize.
The loading efficiency, which included surface-bound drug or free drug in solution, was 67%. Upon suspending the particles in dissolution media, 20% of the triamcinolone hexacetonide was released within an hour, and 30% was released within 2 hours.

[5] = Curcumin loading, release and post-release extraction of microparticle flakes
Protocol: as §1
Crosslinked microparticles (15 mg) were loaded with 2.5 mg curcumin by overnight soaking in THF followed by the slow addition of 50 mL PBS containing 0.1% Tween. The microparticles were rinsed with THF to remove free curcumin and dried overnight.
It was observed that microparticles thus produced formed “flakes” that could not be re-suspended in THF or PBS buffer solution upon drying. […] The flakes could not be re-suspended in PBS buffer.
The release profile of curcumin of microparticle flakes produced by the method described above. The release profile is further quantified in Table 6, below.

[6] = triamcinolone hexacetonide, first cylinder (labelled with a circle)
[7] = particles of Example 8 suspended in dissolution media
[8] = about 15 mg PVL-co-PAVL macroparticle loaded with 2.5 mg paclitaxel
[9] = about 15 mg PVL-co-PAVL macroparticle, PBS (0.1% Tween), room temperature

## CC(C)(C)CC(=O)OCC(=O)[C@@]12OC(C)(C)O[C@@H]1C[C@H]1[C@@H]3CCC4=CC(=O)C=C[C@]4(C)[C@@]3(F)[C@@H](O)C[C@@]12C [triamcinolone hexacetonide]
[1]
  loading efficiency: 67%
[2]; [6]
  amount of drug in the first cylinder: 1.118 mg
  capacity of the first cylinder: 9.12%
[2]; triamcinolone hexacetonide, second cylinder (labelled with an X)
  capacity of the second cylinder: 11.651%
[2]; triamcinolone hexacetonide, second cylinder (labelled with an X), in mg
  amount of drug in the second cylinder: 0.901
[3]; both triamcinolone hexacetonide cylinders, FIG. 23
  total drug released after about 6 days: about 60%
[4]; Example 7: 75:25 (mPEG-PVL-PAVL:PVL-PAVL) particles, relatively fast addition of water, surface-crystallized drug
  release profile: relatively rapid release
[4]; [7]
  triamcinolone hexacetonide released within 2 hours: 30%
  triamcinolone hexacetonide released within an hour: 20%

## CC(=O)O[C@H]1C(=O)[C@@]2(C)[C@H]([C@H](OC(=O)c3ccccc3)[C@]3(O)C[C@H](OC(=O)[C@H](O)[C@@H](NC(=O)c4ccccc4)c4ccccc4)C(C)=C1C3(C)C)[C@]1(OC(C)=O)CO[C@@H]1C[C@@H]2O [paclitaxel]
[2]; [8]
  loading capacity: 1.7 % w/w
  loading efficiency: 30%
[3]; [9]
  paclitaxel released after 3 hours: 5%
  paclitaxel released after 24 hours: about 5%

## COc1cc(/C=C/C(=O)CC(=O)/C=C/c2ccc(O)c(OC)c2)ccc1O [curcumin]
[2]; curcumin-loaded cylinder
  capacity: 9.64%
[2]; curcumin-loaded cylinder dissolved in THF
  amount of drug in the cylinder: 1.176 mg
[3]; curcumin-loaded cylinder, FIG. 21
  curcumin released after about eight days: almost all
[5]; after 48 hours release
  curcumin recovered in post-release extraction of the flakes: 57%
[5]; from microparticle flakes
  curcumin released after 48 hours: 51%
